Test results: US20210285933A1, “HIGH THROUGHPUT DRUG SCREENING OF CANCER STEM CELLS” (UNIVERSITY OF WASHINGTON, priority 2018, published 2021)

Assays:
[1] = test system: leukemia stem cells (LSCs) CD34+CD38low or negCD123+ from AML patient samples; assay: High throughput functional drug screen (72-hour exposure, CellTiter Glo viability) on FACS sorted LSCs; type: cell-based, human; set-up: AUC Stem Mean: unit not given here; details: for Effectiveness vs. LSCs (AUCstem mean < mitomycin C AUCblast mean, p<0.1): aggregate viability data of patient samples, in vitro 72 h
Experimental: Isolation of blasts and FACS isolation of LSCs: CD34+ blasts were enriched to >90% using immunomagnetic beads (QuadroMACS). Fluorescence activated cell sorting was performed in a biosafety cabinet enclosed FACS-Aria II (Becton-Dickinson; San Jose, Calif.) housed in the University of Washington Core Cell Analysis Facility where voltage was standardized and calibration was performed daily. Mononuclear cells were stained with allophycocyanin H7 (APC-H7) conjugated anti-human CD45, allophycocyanin (APC) conjugated anti-human CD34, phycoerythrin-Cy7 (PE-Cy7) conjugated anti-human CD38 and phycoerythrin (PE) conjugated anti-human CD123 (all from BD Biosciences Pharmingen, San Jose, Calif.). Initially a blast gate was applied for forward scatter vs. side scatter, then sequential gates for CD45 vs. side scatter, CD34+ and CD38^low or neg, then CD123+ cells to yield the LSCs. The CD38low population was defined by CD38 above the isotype control and below that of mature precursors. Flow cytometry data analysis was performed using FlowJo software (Tree Star, Inc. Ashland, Oreg.).
After overnight incubation on matrix protein coated 384 well plates, drugs were added to each well using a CyBio Well Vario liquid handler (Amalytik Jena). The cell populations were analyzed for survival after a 72-hour exposure to 8 customized drug concentrations (within the range of 5 pM to 100 microM) of each drug spanning 4 logs. Post exposure viability was measured using CellTiter Glo luminescent reagent (Promega, Madison, Wis.) per manufacturer protocol, then the plates were analyzed with the Envision Multi-label plate reader (Perkin Elmer, Waltham, Mass.). XLFit software (IDBS, Guildford, Surrey, United Kingdom) was used to analyze the data and generate dose response curves based on standard 4-parameter logistic fit. For each plate, data were normalized to DMSO 100% viability and blank controls.
Area under the curve (AUC) was calculated for each dose response curve. For the 4 patient samples, two-sample two-tailed t-tests were used for group comparisons of AUC values to determine drug specificity and efficacy.
Drug specificity was defined by group comparisons between AUCs for each drug and cell type across patient samples. […] Group comparisons for categorical variable were completed using Fisher's exact test.

LSCs = details: literature; cited from earlier work
AML = details: literature; cited from earlier work
pediatric AML blasts = details: literature; cited from earlier work

Row | Structure (SMILES) | Effectiveness vs. LSCs (AUCstem mean < mitomycin C AUCblast mean, p<0.1) [1] | anti-LSC effect in vitro in prior studies (LSCs) | clinical effect in AML patients (AML) | AUC Stem Mean ([1]; mean area under dose response curve across patient samples, 72-hour exposure, 8 concentrations) | effect vs. pediatric AML blasts in vitro (pediatric AML blasts)
1 | CC(C)C[C@H](NC(=O)[C@H](CCc1ccccc1)NC(=O)CN1CCOCC1)C(=O)N[C@@H](Cc1ccccc1)C(=O)N[C@@H](CC(C)C)C(=O)[C@@]1(C)CO1 [Carfilzomib] | not effective | reduced LSCs in vitro | minimal anti-leukemic effects | – | –
2 | CO[C@H]1C(=O)[C@]2(C)[C@@H](OC)C[C@H]3OC[C@@]3(OC(C)=O)[C@H]2[C@H](OC(=O)c2ccccc2)[C@]2(O)C[C@H](OC(=O)[C@H](O)[C@@H](NC(=O)OC(C)(C)C)c3ccccc3)C(C)=C1C2(C)C [Cabazitaxel] | effective | – | – | 0.0031 | effective
